Measurements published in ChEMBL document CHEMBL5724914, “Linking interpersonal differences in gut microbiota composition and drug biotransformation activity” (2024).

Columns and labels:
[1] = human gut metagenome, 24 h, 2 µM
[2] = human gut metagenome, 24 h, 2 µM; remark: listed apart in the source
[3] = (§1) The drug is tested on Z-001 corresponding to mouse gut metagenome with ENA study accession number: PRJEB37062 and ENA sample accession number: ERS12561801 for biotransformation under anaerobic condition. The drug concentrations were measured over 9 timepoints collected between 0 and 24 hours of incubation by liquid-chromatography-coupled mass spectrometry (LC–MS); conditions: 2 µM
[4] = human gut metagenome, 24 h, 2 µM; remark: listed apart in the source
[5] = as §1, with “WLS-027” for “Z-001”, “human” for “mouse”, “ERS12561744” for “ERS12561801”; conditions: 2 µM
[6] = human gut metagenome, 24 h, 2 µM; remark: listed apart in the source
[7] = as §1, with “WLS-010” for “Z-001”, “human” for “mouse”, “ERS12561743” for “ERS12561801”; conditions: 2 µM
[8] = human gut metagenome, 24 h, 2 µM; remark: listed apart in the source
[9] = human gut metagenome, 24 h, 2 µM; remark: listed apart in the source
[10] = as §1, with “WLS-038” for “Z-001”, “human” for “mouse”, “ERS12561745” for “ERS12561801”; conditions: 2 µM
[11] = as §1, with “Z-021” for “Z-001”, “to” for “to mouse gut”, “ERS12561820” for “ERS12561801”; conditions: 2 µM
[12] = human gut metagenome, 24 h, 2 µM; remark: listed apart in the source
[13] = as §1, with “WLS-006” for “Z-001”, “human” for “mouse”, “ERS12561741” for “ERS12561801”; conditions: 2 µM
[14] = human gut metagenome, 24 h, 2 µM; remark: listed apart in the source
[15] = as §1, with “Z-026” for “Z-001”, “to” for “to mouse gut”, “ERS12561825” for “ERS12561801”; conditions: 2 µM
[16] = human gut metagenome, 24 h, 2 µM; remark: listed apart in the source
[17] = as §1, with “Z-006” for “Z-001”, “ERS12561806” for “ERS12561801”; conditions: 2 µM
[18] = as §1, with “Z-025” for “Z-001”, “rabbit” for “mouse”, “ERS12561824” for “ERS12561801”; conditions: 2 µM
[19] = human gut metagenome, 24 h, 2 µM; remark: listed apart in the source
[20] = as §1, with “WLS-370” for “Z-001”, “human” for “mouse”, “ERS12561793” for “ERS12561801”; conditions: 2 µM
Also: call rule not given here.

Row | Bacterial Biotransformation [1] | Bacterial Biotransformation [2] | Bacterial Biotransformation [3] | Bacterial Biotransformation [4] | Bacterial Biotransformation [5] | Bacterial Biotransformation [6] | Bacterial Biotransformation [7] | Bacterial Biotransformation [8] | Bacterial Biotransformation [9] | Bacterial Biotransformation [10] | Bacterial Biotransformation [11] | Bacterial Biotransformation [12] | Bacterial Biotransformation [13] | Bacterial Biotransformation [14] | Bacterial Biotransformation [15] | Bacterial Biotransformation [16] | Bacterial Biotransformation [17] | Bacterial Biotransformation [18] | Bacterial Biotransformation [19] | Bacterial Biotransformation [20] | Compound
1 | Compound NOT metabolized | Compound metabolized | Compound NOT metabolized | Compound metabolized | Compound metabolized | Compound metabolized | Compound metabolized | Compound metabolized | Compound metabolized | Compound metabolized | Compound metabolized | Compound metabolized | Compound metabolized | Compound metabolized | Compound NOT metabolized | Compound metabolized | Compound NOT metabolized | Compound NOT metabolized | Compound NOT metabolized | Compound metabolized | CCOC(=O)[C@H](CCc1ccccc1)N[C@@H](C)C(=O)N1[C@H](C(=O)O)C[C@@H]2CCC[C@@H]21
2 | Compound NOT metabolized | Compound metabolized | Compound metabolized | Compound metabolized | Compound metabolized | Compound metabolized | Compound metabolized | Compound metabolized | Compound metabolized | Compound NOT metabolized | Compound metabolized | Compound metabolized | Compound metabolized | Compound metabolized | Compound NOT metabolized | Compound metabolized | Compound NOT metabolized | Compound NOT metabolized | Compound NOT metabolized | Compound metabolized | CCN(CC)CCNC(C(=O)OCCC(C)C)c1ccccc1.Cl.Cl (stereo not drawn)
3 | Compound NOT metabolized | Compound NOT metabolized | Compound NOT metabolized | Compound metabolized | Compound NOT metabolized | Compound NOT metabolized | Compound NOT metabolized | Compound metabolized | Compound metabolized | Compound NOT metabolized | Compound metabolized | Compound metabolized | Compound NOT metabolized | Compound NOT metabolized | Compound NOT metabolized | Compound metabolized | Compound NOT metabolized | Compound NOT metabolized | Compound metabolized | Compound NOT metabolized | CCCC(=O)Nc1ccc(OCC(O)CNC(C)C)c(C(C)=O)c1 (stereo not drawn) [ACEBUTOLOL]
4 | Compound NOT metabolized | Compound NOT metabolized | Compound NOT metabolized | Compound NOT metabolized | Compound NOT metabolized | Compound NOT metabolized | Compound NOT metabolized | Compound NOT metabolized | Compound metabolized | Compound NOT metabolized | Compound metabolized | Compound metabolized | Compound NOT metabolized | Compound metabolized | Compound metabolized | Compound metabolized | Compound NOT metabolized | Compound metabolized | Compound NOT metabolized | Compound NOT metabolized | C=CCc1ccccc1OCC(O)CNC(C)C (stereo not drawn) [ALPRENOLOL]
5 | Compound NOT metabolized | Compound metabolized | Compound metabolized | Compound metabolized | Compound metabolized | Compound metabolized | Compound metabolized | Compound metabolized | Compound metabolized | Compound metabolized | Compound metabolized | Compound metabolized | Compound metabolized | Compound metabolized | Compound metabolized | Compound metabolized | Compound metabolized | Compound NOT metabolized | Compound metabolized | Compound metabolized | CCOC(=O)[C@H](CCc1ccccc1)N[C@H]1CCc2ccccc2N(CC(=O)O)C1=O [BENAZEPRIL]
6 | Compound NOT metabolized | Compound NOT metabolized | Compound NOT metabolized | Compound NOT metabolized | Compound NOT metabolized | Compound NOT metabolized | Compound NOT metabolized | Compound NOT metabolized | Compound NOT metabolized | Compound NOT metabolized | Compound metabolized | Compound NOT metabolized | Compound NOT metabolized | Compound NOT metabolized | Compound NOT metabolized | Compound NOT metabolized | Compound NOT metabolized | Compound metabolized | Compound NOT metabolized | Compound NOT metabolized | NS(=O)(=O)c1cc2c(cc1Cl)N=C(CSCc1ccccc1)NS2(=O)=O [BENZTHIAZIDE]
7 |  | Compound metabolized |  |  | Compound metabolized | Compound metabolized | Compound metabolized | Compound metabolized | Compound metabolized | Compound metabolized | Compound metabolized | Compound metabolized | Compound metabolized | Compound metabolized | Compound metabolized |  | Compound metabolized | Compound metabolized | Compound metabolized |  | C#C[C@]1(O)CC[C@H]2[C@@H]3CCC4=Cc5oncc5C[C@]4(C)[C@H]3CC[C@@]21C [DANAZOL]
8 | Compound metabolized | Compound metabolized | Compound NOT metabolized | Compound metabolized | Compound metabolized | Compound metabolized | Compound metabolized | Compound metabolized | Compound metabolized | Compound metabolized | Compound metabolized |  | Compound metabolized | Compound NOT metabolized | Compound metabolized | Compound metabolized | Compound metabolized | Compound metabolized | Compound metabolized | Compound metabolized | COc1c2occc2cc2ccc(=O)oc12 [METHOXSALEN]
9 |  | Compound NOT metabolized | Compound NOT metabolized | Compound NOT metabolized | Compound NOT metabolized | Compound NOT metabolized | Compound NOT metabolized | Compound NOT metabolized | Compound NOT metabolized | Compound NOT metabolized | Compound NOT metabolized | Compound NOT metabolized | Compound NOT metabolized | Compound NOT metabolized | Compound NOT metabolized | Compound NOT metabolized | Compound NOT metabolized | Compound NOT metabolized | Compound NOT metabolized | Compound NOT metabolized | CN(C)CCc1c[nH]c2ccc(Cn3cncn3)cc12.O=C(O)c1ccccc1 [RIZATRIPTAN BENZOATE]
